Where “and” joins values, the source holds several entries; their conditions need not be identical. Equal entries are not always repeated. Where two headings read alike, the source gives them in different places.
Columns and labels:
[1] = Pharmacokinetics of R-55 following intravenous administration in pigs; type: in vivo, White Landrace female pigs; conditions: 0.2 mg/kg intravenous
Description: R-55 and related compounds were assayed in the plasma samples using a Waters (USA) Alliance high performance liquid chromatograph coupled with a Waters Micromass ZQ quadruple mass spectrometer (in ESI+ mode) as a detector with Waters Empower chromatographic and mass spectrometric software for chromatographic data acquisition, processing and instrument control.
The tested compound was extracted from plasma using dichloromethane, followed by concentration by evaporating the extract and dissolution in a low volume chromatographic mobile phase.
The instrument was calibrated using plasma spiked with various concentrations of the tested compound. Enrofloxacin (m/z=360.4) was used as an internal standard.
In order to investigate the pharmacokinetics of R-55, the presence of R-55 in plasma was measured following intravenous administration of R-55 in pigs.
White Landrace female pigs were acclimatized for 2days prior to treatment. 3 pigs were administered 0.2 mg/kg R-55 by intravenous injection at a dose volume of 0.2 ml/kg. Blood samples were withdrawn from each pig via a jugular vein catheter at the following time points: immediately prior to injection (t=0), and 5 minutes, 10 minutes, 15 minutes, 30 minutes, 45 minutes, 60 minutes, 90 minutes, 2 hours, 3 hours, 4 hours, and 6 hours post-injection. All samples were collected in a K3EDTA tube (Greiner). Blood samples were stored on crushed ice after collection. Plasma was separated by centrifugation (10 minutes at 3000 rotations per minute), within two hours post-sampling. Each plasma sample was divided into two aliquots before freezing. Plasma samples were then stored at −20° C. until being dispatched for LCMS analysis.
Clinical observations were performed during the six hours following application.
Pharmacokinetic analysis was performed using the WINNONLIN version 5.0 (Pharsight, USA) computerized software. Area under curves of concentration vs. time (AUC) were calculated using the log linear trapezoidal rule. Area under curves were determined for the time period for which concentrations were measured, i.e., t=0 to 6 hours (AUCall), and for an infinite time period (AUCINF), as determined by extrapolation of the curve to t=∞.

[2] = biological target: D4.4 type dopamine receptor (Homo sapiens (Human), UniProt P21917); experiment: Competitive binding to D4.4 receptor ([3H]-YM-09151-2); conditions: human recombinant receptor in CHO cells, [3H]-YM-09151-2 0.3 nM
Description: R-55 (which comprises a 3-hydroxyphenyl moiety) and its isomers L-221 (comprising a 4-hydroxyphenyl moiety) and L-238 (comprising a 2-hydroxyphenyl moiety) were assayed for competitive binding to D2 SHORT and D4.4 type dopamine receptors, in order to assess their efficacy for treating sexual disorders. Both receptor types are expressed as human recombinant proteins in CHO cells, as described, for example, in Jarvis et al. (1973); Van Tol et al. (1991) and Van Tol et al. (1992).
Determination of binding to D4.4 receptor was performed using [^3H]-YM-09151-2 (70-87 Ci/mmol, 0.3 nM), as a radioligand, in the presence of various concentrations of the tested compound. Reactions were carried out in 50 mM TRIS-HCl (pH 7.4) containing 5 mM MgCl2, 5 mM EDTA, 5 mM KCl and 1.5 mM CaCl2, for 60 minutes at 22° C. The reaction was terminated by rapid vacuum filtration onto glass fiber filters. Radioactivity trapped onto the filters was determined (counted) and compared to control values in order to accurately evaluate any interaction of the tested compound(s) with the cloned dopamine D4.4 binding site.

Dopamine D2S receptor = Dopamine D2S receptor (Homo sapiens (Human), UniProt P14416); experiment: Competitive binding, spiperone radioligand
Description: (§1) R-55 (which comprises a 3-hydroxyphenyl moiety) and the structurally related compounds N-108 (2-{[4-(2-ethoxyphenyl)piperazin-1-yl]methyl}quinazolin-4(3H)-one) and B-39 (7-chloro-2-((5,6-dihydro-4-(2-methoxyphenyl)pyridin-1(2H)-yl)methyl)quinazolin-4(3H)-one) were assayed for competitive binding to a variety of receptors, including D4.4 type dopamine receptor, in order to assess their specificity for D4.4 dopamine receptors.
(§2) The receptors were expressed as human recombinant proteins in CHO cells, except for adrenergic α1 and α2 receptors which were expressed in Wistar rat brain and cerebral cortex cells, respectively, and melanocortin MC4 receptor which was expressed in human recombinant HEK-293 cells. Binding was determined using the following radioligands in the presence of various concentrations of the tested compound:
(§3) 0.16 nM, 0.7 nM and 1.2 nM spiperone, respectively, for dopamine D2S, D3 and D4.4 receptors,
(§4) The binding assays were performed in accordance with procedures described in the literature (Greengrass & Bremner, 1979; Boyajian & Leslie, 1987; Broadhurst, 1988; Lewis, 2001; Sutton, 1995; Dearry, 1990; Zhou, 1990; Grandy, 1989; Hayes, 1992; Sokoloff, 1990; Van Tol, 1991; Van Tol 1992; Sunahara, 1991; Weinshank, 1991; Schioth, 1996; Schioth 1997; Martin & Humphrey, 1994; May, 2003; Wolf & Schutz, 1997).

Dopamine D3 receptor = Dopamine D3 receptor (Homo sapiens (Human), UniProt P35462); experiment: Competitive binding, spiperone radioligand
Description: as §1, §2, §3, §4

Dopamine D4.4 receptor = Dopamine D4.4 receptor (Homo sapiens (Human), UniProt P21917); experiment: Competitive binding, spiperone radioligand
Description: as §1, §2, §3, §4

[3] = biological target: Melanocortin MC4 receptor (Homo sapiens (Human), UniProt P32245); experiment: Competitive binding, NDP-α-MSH radioligand
Description: as §1, §2
0.02 nM NDP-α-MSH for melanocortin MC4 receptor,
as §4

Dopamine D4.4 receptor, sequence (P21917 whole entry): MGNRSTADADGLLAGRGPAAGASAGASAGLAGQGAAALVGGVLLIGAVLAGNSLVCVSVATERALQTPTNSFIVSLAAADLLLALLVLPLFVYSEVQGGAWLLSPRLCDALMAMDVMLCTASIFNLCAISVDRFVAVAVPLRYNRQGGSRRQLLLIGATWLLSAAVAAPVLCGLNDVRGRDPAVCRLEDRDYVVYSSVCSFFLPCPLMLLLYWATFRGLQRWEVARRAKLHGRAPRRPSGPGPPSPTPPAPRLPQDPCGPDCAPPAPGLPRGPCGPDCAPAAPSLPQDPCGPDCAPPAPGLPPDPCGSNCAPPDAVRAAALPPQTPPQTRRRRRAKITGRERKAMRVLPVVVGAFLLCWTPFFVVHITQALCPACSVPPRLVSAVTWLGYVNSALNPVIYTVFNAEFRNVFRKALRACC
Dopamine D2S receptor, sequence (P14416 other isoform, or with tags, fused parts or gaps): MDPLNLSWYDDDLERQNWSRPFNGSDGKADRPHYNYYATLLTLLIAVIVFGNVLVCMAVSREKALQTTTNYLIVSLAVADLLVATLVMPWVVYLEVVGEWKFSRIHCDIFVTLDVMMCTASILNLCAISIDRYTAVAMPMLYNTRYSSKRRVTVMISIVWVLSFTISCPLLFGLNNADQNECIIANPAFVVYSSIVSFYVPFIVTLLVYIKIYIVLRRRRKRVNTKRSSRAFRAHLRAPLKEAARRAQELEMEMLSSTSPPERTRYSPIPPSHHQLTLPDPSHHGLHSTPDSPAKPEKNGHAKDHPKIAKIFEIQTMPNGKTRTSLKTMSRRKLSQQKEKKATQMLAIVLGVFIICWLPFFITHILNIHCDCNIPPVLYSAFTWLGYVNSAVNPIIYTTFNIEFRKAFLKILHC
Dopamine D3 receptor, sequence (P35462 whole entry): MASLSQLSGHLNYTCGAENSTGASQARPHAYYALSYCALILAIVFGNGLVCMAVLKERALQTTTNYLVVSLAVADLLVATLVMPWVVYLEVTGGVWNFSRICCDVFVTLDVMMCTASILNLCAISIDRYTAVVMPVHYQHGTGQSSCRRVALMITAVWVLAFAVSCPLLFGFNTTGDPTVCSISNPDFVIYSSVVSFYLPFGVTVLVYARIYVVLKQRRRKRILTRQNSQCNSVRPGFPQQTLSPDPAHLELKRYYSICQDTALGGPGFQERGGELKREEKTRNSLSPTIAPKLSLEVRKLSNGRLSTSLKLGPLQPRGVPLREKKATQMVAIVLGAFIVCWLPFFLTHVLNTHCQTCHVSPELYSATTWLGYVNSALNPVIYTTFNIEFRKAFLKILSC
D4.4 type dopamine receptor, sequence (P21917 whole entry): as the sequence (P21917 whole entry) above
Melanocortin MC4 receptor, sequence (P32245 whole entry): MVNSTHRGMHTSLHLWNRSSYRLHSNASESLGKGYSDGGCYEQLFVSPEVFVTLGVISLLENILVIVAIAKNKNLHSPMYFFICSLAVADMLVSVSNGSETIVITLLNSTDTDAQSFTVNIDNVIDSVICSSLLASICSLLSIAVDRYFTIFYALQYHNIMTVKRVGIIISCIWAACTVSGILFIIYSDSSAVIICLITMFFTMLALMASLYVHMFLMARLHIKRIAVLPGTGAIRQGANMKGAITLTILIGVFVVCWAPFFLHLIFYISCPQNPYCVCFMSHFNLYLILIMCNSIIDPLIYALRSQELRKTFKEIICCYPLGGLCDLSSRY

O=c1[nH]c(CN2CCN(c3cccc(O)c3)CC2)nc2ccccc12 [Compound R-55, 2-((4-(3-hydroxyphenyl)piperazin-1-yl)methyl)quinazolin-4-one]
Time to elimination from the bloodstream after administration [1]: ≤ 30 min
R-55 plasma concentration ([1]; 0 minutes (immediately prior to injection), individual animals #1-#3): 0 ng/mL
R-55 plasma concentration ([1]; 5 minutes after injection, individual animals #1-#3): 122.1 ng/mL and 142.2 ng/mL
R-55 plasma concentration ([1]; 10 minutes after injection, individual animals #1-#3): 112.9 ng/mL and 83.0 ng/mL
R-55 plasma concentration ([1]; 15 minutes after injection, individual animals #1-#3): 30.4 ng/mL and 76.8 ng/mL and 52.8 ng/mL
R-55 plasma concentration ([1]; 30 minutes after injection, individual animals #1-#3): 0 ng/mL and 24.9 ng/mL and 22.3 ng/mL
R-55 detection in plasma ([1]; 45 minutes or more following administration): No R-55 was detected
AUCINF ([1]; extrapolation to infinite time, individual animals): 2501.3 ng·min/mL and 2132.2 ng·min/mL
Clearance ([1]; individual animals): 80.0 mL/min/kg and 93.8 mL/min/kg
Cmax - maximal concentration ([1]; individual animals): 122.1 ng/mL and 142.2 ng/mL
Mean residence time ([1]; individual animals): 17.0 min and 15.8 min
T1/2 - half-life ([1]; individual animals): 8.67 min and 10.34 min and 9.67 min
Volume of distribution ([1]; individual animals): 1193.0 mL/kg and 1308.1 mL/kg
Volume of distribution at steady state ([1]; individual animals): 1358.9 mL/kg and 1509.3 mL/kg
Clinical observations (side effects) ([1]; six hours following application): No abnormal side effects were observed
AUCall ([1]; t=0 to 6 hours, individual animals): 2129.0 ng·min/mL and 1821.3 ng·min/mL
concentration at 0 min ([1]; female, White Landrace, pig, plasma, iv, 0.2 mg/kg, 0 minutes (immediately prior to injection), individual animals #1-#3): 0 ng/mL
concentration at 5 min ([1]; female, White Landrace, pig, plasma, iv, 0.2 mg/kg, 5 minutes after injection, individual animals #1-#3): 158 ng/mL
concentration at 10 min ([1]; female, White Landrace, pig, plasma, iv, 0.2 mg/kg, 10 minutes after injection, individual animals #1-#3): 86.7 ng/mL
AUC(0-inf) ([1]; female, White Landrace, pig, plasma, iv, 0.2 mg/kg, extrapolation to infinite time, individual animals): 32.1 ng·h/mL
Clearance ([1]; female, White Landrace, pig, plasma, iv, 0.2 mg/kg, individual animals, read-out: Clearance): 104 mL/min/kg
Cmax ([1]; female, White Landrace, pig, plasma, iv, 0.2 mg/kg, individual animals, read-out: Cmax - maximal concentration): 158 ng/mL
MRT ([1]; female, White Landrace, pig, plasma, iv, 0.2 mg/kg, individual animals, read-out: Mean residence time (converted)): 14.5 min
half-life ([1]; female, White Landrace, pig, plasma, iv, 0.2 mg/kg, individual animals, read-out: T1/2 - half-life): 9 to 10 min
Vd ([1]; female, White Landrace, pig, plasma, iv, 0.2 mg/kg, individual animals, read-out: Volume of distribution): 1.3 L/kg
Vd ([1]; female, White Landrace, pig, plasma, iv, 0.2 mg/kg, individual animals, read-out: Volume of distribution at steady state): 1.51 L/kg
AUC ([1]; female, White Landrace, pig, plasma, iv, 0.2 mg/kg, t=0 to 6 hours, individual animals): 27.9 ng·h/mL
IC50 [2]: 500 nM
Competitive binding (%) at 5 μM of tested compound (Dopamine D2S receptor): 7%
Competitive binding (%) at 5 μM of tested compound (Dopamine D3 receptor): 5%
Competitive binding (%) at 5 μM of tested compound (Dopamine D4.4 receptor; Dopamine D4.4 receptor, 5 μM): 31%
binding affinity to the D4.4 receptor (in words) (Dopamine D4.4 receptor; Table 8): high binding affinity
Competitive binding (%) at 5 μM of tested compound [3]: 3%

From US9353067B2, “Heterocyclic compounds and uses thereof in the treatment of sexual disorders” (ATIR Holding S.A., priority 2011, dated 2016)
